# Literature values in patent publication US6586417B1, “Ester and ether derivatives of 4-hydroxy 4-androstene-3,17-dione and a method for the regulation of athletic function in humans” (NutriSport Pharmacal, Inc., priority 2002, dated 2003).
# Assays:
# [1] = system: rats; conditions: for weight of the genital organs (testis, ventral prostrate, seminal vesicle) / luteinizing hormone (LH) levels: rats, subcutaneous treatment; for luteinizing hormone (LH) levels: 4-acetoxy-4-androstenedione given against effects of 19-hydroxytestosterone
# [2] = system: rat follicles; conditions: rat follicles in vitro
# [3] = system: transformation of testosterone to dihydrotestosterone in the ventral prostrate; conditions: ventral prostrate of the adult male rat
# [4] = system: estrogen
# [5] = biological target: T1, aromatase enzyme (Homo sapiens, UniProt P11511); conditions: at 24 and 48 weeks
# T1 construct: host or cells: endogenous enzyme in treated males (in vivo)
# T1 sequence (P11511 1-503): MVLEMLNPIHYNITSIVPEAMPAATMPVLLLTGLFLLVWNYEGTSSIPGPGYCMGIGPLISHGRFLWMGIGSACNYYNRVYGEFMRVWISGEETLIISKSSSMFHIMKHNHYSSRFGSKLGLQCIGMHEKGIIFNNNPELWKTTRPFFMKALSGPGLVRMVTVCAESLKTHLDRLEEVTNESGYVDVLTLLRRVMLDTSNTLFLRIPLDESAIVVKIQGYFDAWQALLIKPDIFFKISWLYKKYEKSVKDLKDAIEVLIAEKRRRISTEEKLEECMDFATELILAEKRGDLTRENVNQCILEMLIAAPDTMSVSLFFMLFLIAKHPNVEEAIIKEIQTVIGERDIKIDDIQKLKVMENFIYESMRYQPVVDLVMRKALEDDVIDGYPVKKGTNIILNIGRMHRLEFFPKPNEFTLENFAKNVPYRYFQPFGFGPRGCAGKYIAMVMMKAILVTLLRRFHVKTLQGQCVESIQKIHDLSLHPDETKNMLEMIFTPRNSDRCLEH
smiles,measurement,setting,value
CC(=O)OC1=C2CC[C@@H]3[C@H](CC[C@]4(C)C(=O)CC[C@@H]34)[C@@]2(C)CCC1=O [4-acetoxy-4-androstenedione],meiotic activity,[1]; rats treated with 19-hydroxytestosterone,restored meiotic activity
same,"weight of the genital organs (testis, ventral prostrate, seminal vesicle)",[1],increased the weight of the genital organs
same,luteinizing hormone (LH) levels,[1],increased luteinizing hormone (LH) levels
same,"stimulation of testosterone, in combination with luteinizing hormone (LH)","[2]; first eight hours, plus LH",greatly stimulate testosterone
same,"stimulation of testosterone, compound alone","[2]; first eight hours, without LH",directly stimulate testosterone alone
same,stimulation of testosterone relative to luteinizing hormone (LH),"[2]; next sixteen hours, compound alone",three times as much as luteinizing hormone (LH)
same,inhibition of the transformation of testosterone to dihydrotestosterone,[3],able to inhibit
"C[C@]12CCC(=O)C(O)=C1CC[C@@H]1[C@@H]2CC[C@]2(C)C(=O)CC[C@@H]12 [4-hydroxy 4-androstenedione, 4-hydroxy 4-androstene-3, 17-dione]",inhibition of the transformation of testosterone to dihydrotestosterone,[3],able to inhibit
same,escape from estrogen suppression,[4]; 500 mg p.o. daily versus single i.m. injection of 125 mg,more rapid
same,oral absorption,[4]; p.o.,adequate oral absorption
"C[C@]12CC[C@H]3[C@@H](CCC4=CC(=O)CC[C@@]43CO)[C@@H]1CC[C@@H]2O [19-hydroxytestosterone, reference compound]","weight of the genital organs (testis, ventral prostrate, seminal vesicle)",[1],"decrease in weight of the testis, ventral prostrate, seminal vesicle"
same,luteinizing hormone (LH) levels,[1],decrease
CC1=CC(=O)C=C2CC[C@@H]3[C@H](CC[C@]4(C)C(=O)CC[C@@H]34)[C@@]12C [atamestane],restoration of androgens over estrogens,[5],restoration of androgens over estrogens
